Assay results from patent EP1406920B1, “NOVEL CHROMOGENIC SUBSTANCES AND USE THEREOF FOR THE DETERMINATION OF CARBOXYPEPTIDASE ACTIVITIES” (Diagnostica Stago, priority 2001, dated 2003).

What was measured:
Format in all cases: biochemical
TAFI purifié [1] = target: T1, TAFI purifié (Homo sapiens, UniProt Q96IY4); experiment: Colorimetric TAFI activity assay on purified TAFI with different substrates (thrombin/thrombomodulin activation, carboxypeptidase A revelation); details: substrate 5 mM; 6,5 µg/ml TAFI purifié in hépès buffer; read at 320-350 nm
T1 sequence (Q96IY4 115-423): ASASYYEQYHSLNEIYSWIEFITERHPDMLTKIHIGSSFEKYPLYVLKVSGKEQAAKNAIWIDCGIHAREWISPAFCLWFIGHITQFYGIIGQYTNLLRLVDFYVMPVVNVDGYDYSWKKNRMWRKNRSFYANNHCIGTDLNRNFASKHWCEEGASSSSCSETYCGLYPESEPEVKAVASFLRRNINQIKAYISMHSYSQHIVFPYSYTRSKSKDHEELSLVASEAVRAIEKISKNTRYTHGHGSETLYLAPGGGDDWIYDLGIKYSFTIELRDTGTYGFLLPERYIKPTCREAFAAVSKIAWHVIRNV

TAFI plasmatique = target: T2, TAFI plasmatique (Homo sapiens, UniProt Q96IY4); experiment: Decoloration of single-amino-acid substrate AAFR by activated plasma TAFI
T2 construct: from tissue; host or cells: normal plasma pool, diluted 1/20
T2 sequence (Q96IY4 115-423): T1 sequence (Q96IY4 115-423)
Source text: (§1) L'exemple ci-après vise à démontrer la nécessité d'utiliser la méthode et les composés de formule (I) de l'invention pour doser spécifiquement l'activité des CPN ou U, en particulier le TAFI, par rapport à d'autres carboxypeptidases basiques. 1. Le dosage est dans ce cas réalisé avec un substrat de la famille de composés décrites par Mock dans (14). Ce substrat est constitué d'un seul acide aminé porteur du radical chromophore anizylazoformyl (portion CH3OC6H4-N = N-CO-). L'acide aminé choisi est l'arginine, un acide aminé basique normalement hydrolysé par les carboxypeptidases B (1). Ce substrat est dénommé ci-après AAFR (AnizylAzoFormyArginine) ou MxAFR (4-MethoxyphenylAzoformylarginine). Ce substrat (0,25 mM) est mis en présence soit d'un échantillon de TAFI plasmatique, soit d'une solution de carboxypeptidase B pancréatique porcine (Sigma - Réf. C9584) à 5,2 mol/l. La diminution de coloration de chacun des deux échantillons est suivie au spectrophotomètre. Chacun des échantillons est traité selon le protocole suivant : • a) échantillon de départ : • TAFI plasmatique (présent dans un pool normal de plasmas - dilué au 1/20) ou • Carboxypeptidase B pancréatique porcine 5,2 mol/l (dans tampon hépès) • b) activation avec complexe thrombine-thrombomoduline-CaCl2 (voir exemple 2) pour l'échantillon de TAFI plasmatique. • c) addition de AAFR à 5 mM. • d) lecture DO à 382 nm.

[2] = system: carboxypeptidase B pancréatique porcine; experiment: Decoloration of single-amino-acid substrate AAFR by pancreatic carboxypeptidase B; details: CPB porcine 5,2 mol/l in hépès buffer; AAFR 5 mM (0,25 mM); 382 nm
Source text: as §1

TAFI purifié [3] = target: T1, TAFI purifié; experiment: Specificity test on purified TAFI solution: MxAFR versus MxPAFFK; details: for DO de départ / DO finale / Delta DO: TAFI purifié 18 µg/ml, activated, MxAFR 27 mM without CPA, MxPAFFK with CPA added, 382 nm; for hydrolyse par le TAFI activé: conclusion in words, purified TAFI 18 µg/ml
Source text: 2. La méthode de l'invention est ensuite appliquée sur une solution de TAFI purifiée, soit avec un substrat de formule (I) (MxPAFFK), soit avec le MxAFR pour vérifier que le TAFIa hydrolyse néanmoins un composé de formule (I). L'activation de la coagulation est déclenchée par le complexe thrombine-thrombomoduline-CaCl2 (voir protocole exemple 2). La diminution de coloration de chacun des deux échantillons est suivie au spectrophotomètre. • a) échantillons de départ : solution de TAFI purifié à18 µg/ml (dilué dans tampon hépès). • b) activation de la coagulation. • c) addition de MxAFR 27 mM ou MxPAFFK (témoin) concentration du MxAFFK. • d) addition de CPA dans l'échantillon contenant le MxPAFFK. • e) lecture DO à 382 nm.

TAFI purifié [4] = target: T1, TAFI purifié; experiment: Calibration range, thrombin/thrombomodulin method, TAFI-deficient plasma spiked with purified TAFI; details: substrate 5 mM
Protocol: L'échantillon de plasma testé est divisé en deux aliquotes, l'un étant additionné de PIC (Calbiochem - Réf. 217359), l'autre de tampon hépès. Les deux aliquotes sont ensuite traités de manière identique selon le principe suivant :
• 150 µl de plasma dilué au 1/20 en tampon hépès (ou TAFI purifié à 13 µg/ml en tampon hépès. • 10 µl PIC ou H2O • 5 minutes à température ambiante • 150 µl tampon activateur de la coagulation • 10 minutes à température ambiante • 100 µl PPACK + 100 µl MxPAFFR (substrat) (5 mM)
• 30 minutes à température ambiante • 100 µl HCl 1M + 100 µl NaOH 1M
• Dilution au 1/3 en tampon hépès • Lecture de la DO à 382 nm • 25 µl Carboxypeptidase A • Lecture de la DO à 382 nm sur 1 minute
La figure 3 ci-après représente une courbe d'étalonnage établie à partir d'un plasma déficient en TAFI surchargé avec du TAFI purifié pour obtenir une gamme de concentration en TAFI allant de 0 à 26 µg/ml. Le composé de formule I utilisé est le MxPAAFR à une concentration de 5 mM. Les Δ DO mesurés selon la méthode de l'invention sont reportés dans le tableau III suivant : TABLEAU III : […]

[5] = TAFIa du plasma (normal plasma pool diluted 1/20, thrombine-thrombomoduline-CaCl2 activation), AAFR 5 mM (0,25 mM), 382 nm

SMILES | DO de départ (TAFI purifié [1]) | DO finale (TAFI purifié [1]) | Delta DO (TAFI purifié [1]) | DO de départ (TAFI purifié [3]) | DO finale (TAFI purifié [3]) | Delta DO (TAFI purifié [3]) | hydrolyse par le TAFI activé (TAFI purifié [3]) | also measured
Cc1cccc(N=NC(=O)N[C@@H](Cc2ccccc2)C(=O)N[C@@H](CCCNC(=N)N)C(=O)O)c1C [2,3 DMPAFFR, 2,3-dimethylphenylazoformylphenylalanylarginine] | 0.318 | 0.089 | 0.229 | – | – | – | – | –
Cc1ccc(N=NC(=O)N[C@@H](Cc2ccccc2)C(=O)N[C@@H](CCCNC(=N)N)C(=O)O)c(C)c1 [2,4 DMPAFFR, 2,4-dimethylphenylazoformylphenylalanylarginine] | 1.004 | 0.087 | 0.917 | – | – | – | – | –
Cc1ccc(C)c(N=NC(=O)N[C@@H](Cc2ccccc2)C(=O)N[C@@H](CCCNC(=N)N)C(=O)O)c1 [2,5 DMPAFFR, 2,5-dimethylphenylazoformylphenylalanylarginine] | 0.973 | 0.131 | 0.842 | – | – | – | – | –
COc1ccc(N=NC(=O)N[C@@H](CCCNC(=N)N)C(=O)O)cc1 [AAFR, 4-MethoxyphenylAzoformylarginine] | – | – | – | 1.356 | 1.300 | 0.056 | n'hydrolyse pas | DO de départ (TAFI plasmatique; [5]): 1.730; DO finale (TAFI plasmatique; [5]): 1.681; Delta DO (TAFI plasmatique; [5]): 0.049; hydrolyse par le TAFI activé (TAFI plasmatique; conclusion in words, plasma TAFIa): n'hydrolyse pas; Delta DO [2]: 0.608
COc1ccc(N=NC(=O)N[C@@H](Cc2ccccc2)C(=O)N[C@@H](CCCNC(=N)N)C(=O)O)cc1 [MxPAAFR, 4-methoxyphenylazoformylphenylalanylarginine] | – | – | – | – | – | – | – | Δ DO mesuré (TAFI purifié [4]; concentration en TAFIa 0 µg/ml): 0.168; Δ DO mesuré (TAFI purifié [4]; concentration en TAFIa 1.63 µg/ml): 0.217; Δ DO mesuré (TAFI purifié [4]; concentration en TAFIa 3.25 µg/ml): 0.273; Δ DO mesuré (TAFI purifié [4]; concentration en TAFIa 6.5 µg/ml): 0.399; Δ DO mesuré (TAFI purifié [4]; concentration en TAFIa 13 µg/ml): 0.624; Δ DO mesuré (TAFI purifié [4]; concentration en TAFIa 26 µg/ml): 0.995
COc1ccc(N=NC(=O)N[C@@H](Cc2ccccc2)C(=O)N[C@@H](CCCCN)C(=O)O)cc1 [MxPAFFK, 4-methoxyphenylazoformylphenylalanyllysine] | 0.973 | 0.131 | 0.842 | 1.397 | 0.849 | 0.548 | actif | –
